# How the values were obtained:
# Type in all cases: in vivo
# [1] = system: barnyardgrass (Echinochloa crus-galli); assay: Test A preemergence, barnyardgrass; details: Preemergence; for Barnyardgrass plant response rating: visual injury on 0 to 100 scale (0 no effect, 100 complete control), approximately 10 days; for Plant response rating, Barnyardgrass: 0 to 100 scale (0 no effect, 100 complete control)
# In short: (§1)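 Whole-plant herbicidal screen in pots of loam blended with sand. Sprays used a surfactant-containing, non-phytotoxic solvent vehicle. Timing was preemergence soil-directed at planting or postemergence at the one- to two-leaf stage (2–10 cm).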
# [2] = system: kochia (Bassia scoparia); assay: Test A preemergence, kochia; details: Preemergence; for Kochia plant response rating: visual injury on 0 to 100 scale (0 no effect, 100 complete control), approximately 10 days; for Plant response rating, Kochia: 0 to 100 scale (0 no effect, 100 complete control)
# In short: as §1
# [3] = system: ragweed (common ragweed, Ambrosia artemisiifolia); assay: Test A preemergence, ragweed; details: Preemergence; for Ragweed plant response rating: visual injury on 0 to 100 scale (0 no effect, 100 complete control), approximately 10 days; for Plant response rating, Ragweed: 0 to 100 scale (0 no effect, 100 complete control)
# In short: as §1
# [4] = system: Ryegrass, Italian (Italian ryegrass, Lolium multiflorum); assay: Test A preemergence, Ryegrass, Italian; details: Preemergence; for Ryegrass, Italian plant response rating: visual injury on 0 to 100 scale (0 no effect, 100 complete control), approximately 10 days; for Plant response rating, Ryegrass, Italian: 0 to 100 scale (0 no effect, 100 complete control)
# In short: as §1
# [5] = system: Foxtail, Giant (giant foxtail, Setaria faberi); assay: Test A preemergence, Foxtail, Giant; details: Preemergence; for Foxtail, Giant plant response rating: visual injury on 0 to 100 scale (0 no effect, 100 complete control), approximately 10 days; for Plant response rating, Foxtail, Giant: 0 to 100 scale (0 no effect, 100 complete control)
# In short: as §1
# [6] = system: pigweed (Amaranthus retroflexus); assay: Test A preemergence, pigweed; details: for Pigweed plant response rating: visual injury on 0 to 100 scale (0 no effect, 100 complete control), approximately 10 days; for Plant response rating, Pigweed: 0 to 100 scale (0 no effect, 100 complete control)
# In short: (§2)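 Barnyardgrass, wheat and galium were treated postemergence at the one- to two-leaf stage (2 to 10 cm) with chemicals formulated in non-phytotoxic solvent plus surfactant, grown in loam soil–sand pots. Pigweed was sown in the same blend and given a preemergence directed soil spray.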
# [7] = system: barnyardgrass (Echinochloa crus-galli); assay: Test A postemergence, barnyardgrass; details: Postemergence, 0 to 100 scale (0 no effect, 100 complete control); for Barnyardgrass plant response rating: visual injury vs untreated controls after approx. 10 days
# In short: as §2
# [8] = system: kochia (Bassia scoparia); assay: Test A postemergence, kochia; details: Postemergence, 0 to 100 scale (0 no effect, 100 complete control); for Kochia plant response rating: visual injury vs untreated controls after approx. 10 days
# In short: as §1
# [9] = system: ragweed (common ragweed, Ambrosia artemisiifolia); assay: Test A postemergence, ragweed; details: Postemergence, 0 to 100 scale (0 no effect, 100 complete control); for Ragweed plant response rating: visual injury vs untreated controls after approx. 10 days
# In short: as §1
# [10] = system: Ryegrass, Italian (Italian ryegrass, Lolium multiflorum); assay: Test A postemergence, Ryegrass, Italian; details: Postemergence, 0 to 100 scale (0 no effect, 100 complete control); for Ryegrass, Italian plant response rating: visual injury vs untreated controls after approx. 10 days
# In short: as §1
# [11] = system: Foxtail, Giant (giant foxtail, Setaria faberi); assay: Test A postemergence, Foxtail, Giant; details: Postemergence, 0 to 100 scale (0 no effect, 100 complete control); for Foxtail, Giant plant response rating: visual injury vs untreated controls after approx. 10 days
# In short: as §1
# [12] = system: pigweed (Amaranthus retroflexus); assay: Test A postemergence, pigweed; details: Postemergence, 0 to 100 scale (0 no effect, 100 complete control); for Pigweed plant response rating: visual injury vs untreated controls after approx. 10 days
# In short: as §1
# [13] = system: wheat (Triticum aestivum); assay: Test A postemergence, wheat; details: Postemergence, 0 to 100 scale (0 no effect, 100 complete control); for Wheat plant response rating: visual injury vs untreated controls after approx. 10 days
# In short: as §2
# [14] = system: corn (Zea mays); assay: Test A postemergence, corn; details: Postemergence, 0 to 100 scale (0 no effect, 100 complete control); for Corn plant response rating: visual injury vs untreated controls after approx. 10 days
# In short: as §1
# [15] = system: blackgrass (Alopecurus myosuroides); assay: Test A postemergence, blackgrass; details: Postemergence, 0 to 100 scale (0 no effect, 100 complete control); for Blackgrass plant response rating: visual injury vs untreated controls after approx. 10 days
# In short: as §1
# [16] = system: galium (catchweed bedstraw, Galium aparine); assay: Test A postemergence, galium; details: Postemergence, 0 to 100 scale (0 no effect, 100 complete control); for Galium plant response rating: visual injury vs untreated controls after approx. 10 days
# In short: as §2
# [17] = 125 g ai/ha, visual injury, approx. 10 days
# [18] = 500 g ai/ha, visual injury approx. 10 days
SMILES,"Plant response rating, Barnyardgrass ([1]; 500 g ai/ha)","Plant response rating, Kochia ([2]; 500 g ai/ha)","Plant response rating, Ragweed ([3]; 500 g ai/ha)","Plant response rating, Ryegrass, Italian ([4]; 500 g ai/ha)","Plant response rating, Barnyardgrass ([7]; 125 g ai/ha)","Plant response rating, Kochia ([8]; 125 g ai/ha)","Plant response rating, Ragweed ([9]; 125 g ai/ha)","Plant response rating, Ryegrass, Italian ([10]; 125 g ai/ha)","Plant response rating, Foxtail, Giant ([11]; 125 g ai/ha)","Plant response rating, Pigweed ([12]; 125 g ai/ha)","Plant response rating, Wheat ([13]; 125 g ai/ha)","Plant response rating, Corn ([14]; 125 g ai/ha)","Plant response rating, Blackgrass ([15]; 125 g ai/ha)","Plant response rating, Galium ([16]; 125 g ai/ha)","Plant response rating, Barnyardgrass [1, 17]","Plant response rating, Kochia [2, 17]","Plant response rating, Ragweed [3, 17]","Plant response rating, Ryegrass, Italian [4, 17]","Plant response rating, Foxtail, Giant [5, 17]","Plant response rating, Pigweed [6, 17]",other results
Cc1cc(C(F)(F)F)c(C(=O)N2CCCCC2)cc1NS(=O)(=O)C(F)(F)F [Compound 180],80,0,70,50,0,10,20,0,10,50,0,0,0,70,–,–,–,–,–,–,"Barnyardgrass plant response rating ([1]; 125 g ai/ha): 0; Kochia plant response rating ([2]; 125 g ai/ha): 0; Ragweed plant response rating ([3]; 125 g ai/ha): 20; Ryegrass, Italian plant response rating ([4]; 125 g ai/ha): 0; Foxtail, Giant plant response rating ([5]; 125 g ai/ha): 0; Plant response rating, Foxtail, Giant ([5]; 500 g ai/ha): 90; Pigweed plant response rating ([6]; 125 g ai/ha): 20; Plant response rating, Pigweed ([6]; 500 g ai/ha): 70; Barnyardgrass plant response rating ([7]; 500 g ai/ha): 10; Kochia plant response rating ([8]; 500 g ai/ha): 40; Ragweed plant response rating ([9]; 500 g ai/ha): 70; Ryegrass, Italian plant response rating ([10]; 500 g ai/ha): 0; Foxtail, Giant plant response rating ([11]; 500 g ai/ha): 10; Pigweed plant response rating ([12]; 500 g ai/ha): 70; Wheat plant response rating ([13]; 500 g ai/ha): 0; Corn plant response rating ([14]; 500 g ai/ha): 0; Blackgrass plant response rating ([15]; 500 g ai/ha): 20; Galium plant response rating ([16]; 500 g ai/ha): 90"
Cc1cc(Cl)c(NS(=O)(=O)C(F)(F)F)cc1C1=NOC2(CCCCC2)C1 [Compound 221],100,90,90,100,30,60,70,0,0,20,20,10,10,80,100,70,90,100,100,60,"Plant response rating, Foxtail, Giant ([5]; 500 g ai/ha): 100; Plant response rating, Pigweed ([6]; 500 g ai/ha): 100; Barnyardgrass plant response rating ([7]; 500 g ai/ha): 80; Kochia plant response rating ([8]; 500 g ai/ha): 70; Ragweed plant response rating ([9]; 500 g ai/ha): 90; Ryegrass, Italian plant response rating ([10]; 500 g ai/ha): 60; Foxtail, Giant plant response rating ([11]; 500 g ai/ha): 90; Pigweed plant response rating ([12]; 500 g ai/ha): 80; Wheat plant response rating ([13]; 500 g ai/ha): 70; Corn plant response rating ([14]; 500 g ai/ha): 40; Blackgrass plant response rating ([15]; 500 g ai/ha): 30; Galium plant response rating ([16]; 500 g ai/ha): 100"
Cc1cc(Cl)c(C(=O)N2CCCCC2)cc1NS(=O)(=O)C(F)(F)F [Compound 252],–,–,–,–,0,30,10,30,0,70,0,10,0,80,40,60,80,60,100,100,"Barnyardgrass plant response rating ([1]; 500 g ai/ha): 100; Kochia plant response rating ([2]; 500 g ai/ha): 80; Ragweed plant response rating ([3]; 500 g ai/ha): 90; Ryegrass, Italian plant response rating ([4]; 500 g ai/ha): 100; Foxtail, Giant plant response rating ([5]; 500 g ai/ha): 100; Pigweed plant response rating ([6]; 500 g ai/ha): 100; Plant response rating, Barnyardgrass [7, 18]: 30; Plant response rating, Kochia [8, 18]: 60; Plant response rating, Ragweed [9, 18]: 90; Plant response rating, Ryegrass, Italian [10, 18]: 70; Plant response rating, Foxtail, Giant [11, 18]: 40; Plant response rating, Pigweed [12, 18]: 80; Plant response rating, Wheat [13, 18]: 40; Plant response rating, Corn [14, 18]: 0; Plant response rating, Blackgrass [15, 18]: 0; Plant response rating, Galium [16, 18]: 80"
Cc1cc(Cl)c(C(=O)N2CCOCC2)cc1NS(=O)(=O)C(F)(F)F [Compound 248],–,–,–,–,60,60,90,0,20,80,40,0,0,70,80,90,80,70,40,90,"Barnyardgrass plant response rating ([1]; 500 g ai/ha): 90; Kochia plant response rating ([2]; 500 g ai/ha): 90; Ragweed plant response rating ([3]; 500 g ai/ha): 90; Ryegrass, Italian plant response rating ([4]; 500 g ai/ha): 90; Foxtail, Giant plant response rating ([5]; 500 g ai/ha): 80; Pigweed plant response rating ([6]; 500 g ai/ha): 90; Plant response rating, Barnyardgrass [7, 18]: 90; Plant response rating, Kochia [8, 18]: 90; Plant response rating, Ragweed [9, 18]: 90; Plant response rating, Ryegrass, Italian [10, 18]: 70; Plant response rating, Foxtail, Giant [11, 18]: 50; Plant response rating, Pigweed [12, 18]: 80; Plant response rating, Wheat [13, 18]: 60; Plant response rating, Corn [14, 18]: 0; Plant response rating, Blackgrass [15, 18]: 60; Plant response rating, Galium [16, 18]: 90"

# — US20230278972A1, “SUBSTITUTED HALOALKYL SULFONANILIDE HERBICIDES” (FMC Corporation, priority 2020, published 2023)
